Assay results taken from patent US20110160196A1, “FACTOR XA INHIBITORS” (Millennium Pharmaceuticals, Inc., priority 2007, published 2011).

Biological target: T1, human plasma protein factor Xa (Homo sapiens, UniProt P00742)
T1 construct: The human plasma protein factor Xa was purchased; purchased Haematologic Technologies (Essex Junction, Vt.); host or cells: human plasma
Test: Factor Xa IC50 determination (cleavage of paranitroanilide substrate S-2765)
Type: biochemical
Conditions: factor Xa 1 nM, S-2765 100 μM, Tris buffered saline pH 7.4, read at 405 nm
Method in brief: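 Human plasma factor Xa (1 nM) preincubated 5 min at room temperature with inhibitor (0.01 nM–10 μM) in Tris-buffered saline pH 7.4 with 5 mM CaCl2, 0.1% BSA, 5% DMSO. S-2765 added at 100 μM final; pNA release followed at 405 nm for 2 min. IC50 from four-parameter fit of initial velocities.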

T1 sequence (P00742 235-488 limits assumed): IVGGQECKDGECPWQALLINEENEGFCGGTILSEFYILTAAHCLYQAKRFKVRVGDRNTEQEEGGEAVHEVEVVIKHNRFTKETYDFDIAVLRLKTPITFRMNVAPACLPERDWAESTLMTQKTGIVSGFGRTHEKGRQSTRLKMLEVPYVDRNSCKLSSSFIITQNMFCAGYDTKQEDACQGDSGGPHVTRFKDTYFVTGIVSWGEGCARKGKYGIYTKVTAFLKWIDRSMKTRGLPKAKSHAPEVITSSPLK
T1 sequence (P00742 41-179 partner limits assumed): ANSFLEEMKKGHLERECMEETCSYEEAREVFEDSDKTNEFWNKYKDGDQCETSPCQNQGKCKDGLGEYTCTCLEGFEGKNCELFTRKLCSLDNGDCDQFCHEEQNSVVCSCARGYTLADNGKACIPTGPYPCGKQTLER

Q: How did the IC50 turn out when `O=C(NCc1cn(-c2ccc(-n3ccccc3=O)cc2C(=O)N2CCC(O)CC2)nn1)c1ccc(Cl)s1` [Compound 115, 5-Chloro-N-((1-(2-(4-hydroxypiperidine-1-carbonyl)-4-(2-oxopyridin-1(2H)-yl)phenyl)-1H-1,2,3-triazol-4-yl)methyl)thiophene-2-carboxamide] was run?
A: 0.1 to 0.5 µM

Q: How did the IC50 turn out when `NC(=O)C1CCN(C(=O)c2cc(-n3ccccc3=O)ccc2-n2cc(CNC(=O)c3ccc(Cl)s3)nn2)CC1` [Compound 116, 1-(2-(4-((5-Chlorothiophene-2-carboxamido)methyl)-1H-1,2,3-triazol-1-yl)-5-(2-oxopyridin-1(2H)-yl)benzoyl)piperidine-4-carboxamide] was run?
A: 0.1 to 0.5 µM

Q: How did the IC50 turn out when `O=C(NCc1cn(-c2ccc(-n3ccccc3=O)cc2C(=O)NCc2nnn[nH]2)nn1)c1ccc(Cl)s1` [Compound 117, N-((1-(2-(((1H-Tetrazol-5-yl)methyl)carbamoyl)-4-(2-oxopyridin-1(2H)-yl)phenyl)-1H-1,2,3-triazol-4-yl)methyl)-5-chlorothiophene-2-carboxamide] was run?
A: ≤ 0.1 µM

Q: Which IC50 does the source give for `O=C(NCc1cn(-c2ccc(-n3ccccc3=O)cc2C(=O)Nc2ccncc2)nn1)c1ccc(Cl)s1` [Compound 118, 5-Chloro-N-((1-(4-(2-oxopyridin-1(2H)-yl)-2-(pyridin-4-ylcarbamoyl)phenyl)-1H-1,2,3-triazol-4-yl)methyl)thiophene-2-carboxamide] here?
A: 0.1 to 0.5 µM

Q: With `O=C(NCc1cn(-c2ccc(-n3ccccc3=O)cc2CO)nn1)c1ccc(Cl)s1` [Compound 119, 5-Chloro-N-((1-(2-(hydroxymethyl)-4-(2-oxopyridin-1(2H)-yl)phenyl)-1H-1,2,3-triazol-4-yl)methyl)thiophene-2-carboxamide] as the molecule, how does the IC50 read?
A: ≤ 0.1 µM

Q: `NCc1cc(-n2ccccc2=O)ccc1-n1cc(CNC(=O)c2ccc(Cl)s2)nn1` [Compound 120, N-((1-(2-(Aminomethyl)-4-(2-oxopyridin-1(2H)-yl)phenyl)-1H-1,2,3-triazol-4-yl)methyl)-5-chlorothiophene-2-carboxamide] was tested. Which IC50 did it give?
A: ≤ 0.1 µM

Q: For `CN(C)Cc1cc(-n2ccccc2=O)ccc1-n1cc(CNC(=O)c2ccc(Cl)s2)nn1` [Compound 121, 5-Chloro-N-((1-(2-((dimethylamino)methyl)-4-(2-oxopyridin-1(2H)-yl)phenyl)-1H-1,2,3-triazol-4-yl)methyl)thiophene-2-carboxamide], which IC50 is on record?
A: ≤ 0.1 µM

Q: Which IC50 does the source give for `O=C(NCc1cn(-c2ccc(-n3ccccc3=O)cc2-c2ccncc2)nn1)c1ccc(Cl)s1` [Compound 125, 5-Chloro-N-((1-(4-(2-oxopyridin-1(2H)-yl)-2-(pyridin-4-yl)phenyl)-1H-1,2,3-triazol-4-yl)methyl)thiophene-2-carboxamide] here?
A: ≤ 0.1 µM

Q: With `O=C(NCc1cn(-c2ccc(-n3ccccc3=O)cc2-c2cccnc2)nn1)c1ccc(Cl)s1` [Compound 126, 5-Chloro-N-((1-(4-(2-oxopyridin-1(2H)-yl)-2-(pyridin-3-yl)phenyl)-1H-1,2,3-triazol-4-yl)methyl)thiophene-2-carboxamide] as the molecule, how does the IC50 read?
A: ≤ 0.1 µM

Q: With `O=C(NCc1cn(-c2ccc(-n3ccccc3=O)cc2-c2ccnc(Cl)c2)nn1)c1ccc(Cl)s1` [Compound 133, 5-Chloro-N-((1-(2-(2-chloropyridin-4-yl)-4-(2-oxopyridin-1(2H)-yl)phenyl)-1H-1,2,3-triazol-4-yl)methyl)thiophene-2-carboxamide] as the molecule, how does the IC50 read?
A: ≤ 0.1 µM

Q: With `O=C(NCc1cn(-c2ccc(-n3ccccc3=O)cc2-c2ccnc(F)c2)nn1)c1ccc(Cl)s1` [Compound 134, 5-Chloro-N-((1-(2-(2-fluoropyridin-4-yl)-4-(2-oxopyridin-1(2H)-yl)phenyl)-1H-1,2,3-triazol-4-yl)methyl)thiophene-2-carboxamide] as the molecule, how does the IC50 read?
A: ≤ 0.1 µM

Q: Which IC50 does the source give for `O=C(NCc1cn(-c2ccc(-n3ccccc3=O)cc2-c2ccc(Cl)nc2)nn1)c1ccc(Cl)s1` [Compound 135, 5-Chloro-N-((1-(2-(6-chloropyridin-3-yl)-4-(2-oxopyridin-1(2H)-yl)phenyl)-1H-1,2,3-triazo1-4-yl)methyl)thiophene-2-carboxamide] here?
A: ≤ 0.1 µM

Q: How did the IC50 turn out when `O=C(NCc1cn(-c2ccc(-n3ccccc3=O)cc2-c2ccnc(O)c2)nn1)c1ccc(Cl)s1` [Compound 137, 5-Chloro-N-((1-(2-(2-hydroxypyridin-4-yl)-4-(2-oxopyridin-1(2H)-yl)phenyl)-1H-1,2,3-triazol-4-yl)methyl)thiophene-2-carboxamide] was run?
A: ≤ 0.1 µM

Q: With `COc1cc(-c2cc(-n3ccccc3=O)ccc2-n2cc(CNC(=O)c3ccc(Cl)s3)nn2)ccn1` [Compound 138, 5-Chloro-N-((1-(2-(2-methoxypyridin-4-yl)-4-(2-oxopyridin-1(2H)-yl)phenyl)-1H-1,2,3-triazol-4-yl)methyl)thiophene-2-carboxamide] as the molecule, how does the IC50 read?
A: ≤ 0.1 µM

Q: For `Nc1cc(-c2cc(-n3ccccc3=O)ccc2-n2cc(CNC(=O)c3ccc(Cl)s3)nn2)ccn1` [Compound 139, N-((1-(2-(2-Aminopyridin-4-yl)-4-(2-oxopyridin-1(2H)-yl)phenyl)-1H-1,2,3-triazol-4-yl)methyl)-5-chlorothiophene-2-carboxamide], which IC50 is on record?
A: ≤ 0.1 µM

Q: `CN(C)c1cc(-c2cc(-n3ccccc3=O)ccc2-n2cc(CNC(=O)c3ccc(Cl)s3)nn2)ccn1` [Compound 140, 5-Chloro-N-((1-(2-(2-(dimethylamino)pyridin-4-yl)-4-(2-oxopyridin-1(2H)-yl)phenyl)-1H-1,2,3-triazol-4-yl)methyl)thiophene-2-carboxamide] was tested. Which IC50 did it give?
A: ≤ 0.1 µM

Q: Which IC50 does the source give for `CNc1cc(-c2cc(-n3ccccc3=O)ccc2-n2cc(CNC(=O)c3ccc(Cl)s3)nn2)ccn1` [Compound 141, 5-Chloro-N-((1-(2-(2-(methylamino)pyridin-4-yl)-4-(2-oxopyridin-1(2H)-yl)phenyl)-1H-1,2,3-triazol-4-yl)methyl)thiophene-2-carboxamide] here?
A: ≤ 0.1 µM

Q: Which IC50 does the source give for `O=C(NCc1cn(-c2ccc(-n3ccccc3=O)cc2-c2ccc(O)nc2)nn1)c1ccc(Cl)s1` [Compound 142, 5-Chloro-N-((1-(2-(6-hydroxypyridin-3-yl)-4-(2-oxopyridin-1(2H)-yl)phenyl)-1H-1,2,3-triazol-4-yl)methyl)thiophene-2-carboxamide] here?
A: ≤ 0.1 µM

Q: With `COc1ccc(-c2cc(-n3ccccc3=O)ccc2-n2cc(CNC(=O)c3ccc(Cl)s3)nn2)cn1` [Compound 143, 5-Chloro-N-((1-(2-(6-methoxypyridin-3-yl)-4-(2-oxopyridin-1(2H)-yl)phenyl)-1H-1,2,3-triazol-4-yl)methyl)thiophene-2-carboxamide] as the molecule, how does the IC50 read?
A: ≤ 0.1 µM

Q: `Nc1ccc(-c2cc(-n3ccccc3=O)ccc2-n2cc(CNC(=O)c3ccc(Cl)s3)nn2)cn1` [Compound 144, N-((1-(2-(6-Aminopyridin-3-yl)-4-(2-oxopyridin-1(2H)-yl)phenyl)-1H-1,2,3-triazol-4-yl)methyl)-5-chlorothiophene-2-carboxamide] was tested. Which IC50 did it give?
A: ≤ 0.1 µM

Q: For `CN(C)c1ccc(-c2cc(-n3ccccc3=O)ccc2-n2cc(CNC(=O)c3ccc(Cl)s3)nn2)cn1` [Compound 145, 5-Chloro-N-((1-(2-(6-(dimethylamino)pyridin-3-yl)-4-(2-oxopyridin-1(2H)-yl)phenyl)-1H-1,2,3-triazol-4-yl)methyl)thiophene-2-carboxamide], which IC50 is on record?
A: ≤ 0.1 µM

Q: `CNc1ccc(-c2cc(-n3ccccc3=O)ccc2-n2cc(CNC(=O)c3ccc(Cl)s3)nn2)cn1` [Compound 146, 5-Chloro-N-((1-(2-(6-(methylamino)pyridin-3-yl)-4-(2-oxopyridin-1(2H)-yl)phenyl)-1H-1,2,3-triazol-4-yl)methyl)thiophene-2-carboxamide] was tested. Which IC50 did it give?
A: ≤ 0.1 µM

Q: For `NC(=O)CCNC(=O)c1cc(-n2ccccc2=O)ccc1-n1cc(CNC(=O)c2ccc(Cl)s2)nn1` [Compound 147, N-((1-(2-(3-Amino-3-oxopropylcarbamoyl)-4-(2-oxopyridin-1(2H)-yl)phenyl)-1H-1,2,3-triazol-4-yl)methyl)-5-chlorothiophene-2-carboxamide], which IC50 is on record?
A: 0.1 to 0.5 µM

Q: How did the IC50 turn out when `O=C(NCc1cn(-c2ccc(-n3ccccc3=O)cc2OCCn2ccnc2)nn1)c1ccc(Cl)s1` [Compound 148, N-((1-(2-(2-(1H-Imidazol-1-yl)ethoxy)-4-(2-oxopyridin-1(2H)-yl)phenyl)-1H-1,2,3-triazol-4-yl)methyl)-5-chlorothiophene-2-carboxamide] was run?
A: ≤ 0.1 µM

Q: For `O=C(NCc1cn(-c2ccc(-n3ccccc3=O)cc2OCCCOC(=O)N2CCOCC2)nn1)c1ccc(Cl)s1` [Compound 150, 3-(2-(4-((5-Chlorothiophene-2-carboxamido)methyl)-1H-1,2,3-triazol-1-yl)-5-(2-oxopyridin-1(2H)-yl)phenoxy)propyl morpholine-4-carboxylate], which IC50 is on record?
A: ≤ 0.1 µM

Q: With `O=C(NCc1cn(-c2ccc(-n3ccccc3=O)cc2Oc2ccccn2)nn1)c1ccc(Cl)s1` [Compound 151, 5-Chloro-N-((1-(4-(2-oxopyridin-1(2H)-yl)-2-(pyridin-2-yloxy)phenyl)-1H-1,2,3-triazol-4-yl)methyl)thiophene-2-carboxamid] as the molecule, how does the IC50 read?
A: ≤ 0.1 µM

Q: How did the IC50 turn out when `O=C(O)COc1cc(-n2ccccc2=O)ccc1-n1nnc(CNC(=O)c2ccc(Cl)s2)c1I` [Compound 152, 2-(2-(4-((5-Chlorothiophene-2-carboxamido)methyl)-5-iodo-1H-1,2,3-triazol-1-yl)-5-(2-oxopyridin-1(2H)-yl)phenoxy)acetic acid] was run?
A: ≤ 0.1 µM

Q: Which IC50 does the source give for `O=C(NCc1nnn(-c2ccc(-n3ccccc3=O)cc2OCCCO)c1I)c1ccc(Cl)s1` [Compound 153, 5-Chloro-N-((1-(2-(3-hydroxypropoxy)-4-(2-oxopyridin-1(2H)-yl)phenyl)-5-iodo-1H-1,2,3-triazol-4-yl)methyl)thiophene-2-carboxamide] here?
A: 0.1 to 0.5 µM

Q: With `O=C(NCc1nnn(-c2ccc(-n3ccccc3=O)cc2OC[C@H](O)CO)c1I)c1ccc(Cl)s1` [Compound 154, 5-Chloro-N-((1-(2-((R)-2,3-dihydroxypropoxy)-4-(2-oxopyridin-1(2H)-yl)phenyl)-5-iodo-1H-1,2,3-triazol-4-yl)methyl)thiophene-2-carboxamide] as the molecule, how does the IC50 read?
A: 0.1 to 0.5 µM
